Data taken from patent publication US12540143B2, “Methods and compositions for targeted protein degradation” (Ranok Therapeutics (Hangzhou) Co. Ltd., priority 2019, dated 2026).
Structures can show the parent of a compound that is named as a salt.

Test system: MV4-11 cells
Experiment: MV4-11 Cytotoxicity Assay
Type: cell-based, human
Conditions: 72 hr, CCK-8; read-out: MV4-11 cytotoxicity

Row | Structure (SMILES) | IC50
1 | CCn1c(=O)/c(=C2\Sc3ccccc3N2C)s/c1=C\c1cccc[n+]1CCNC(=O)C[C@@H]1N=C(c2ccc(Cl)cc2)c2c(sc(C)c2C)-n2c(C)nnc21 [Compound 8] | > 1000 nM

Same assay, conditions: Homo sapiens, MV4-11; 72 hr, CCK-8; read-out: MV4-11 cytotoxicity

Row | Structure (SMILES) | IC50
2 | Cc1sc2c(c1C)C(c1ccc(Cl)cc1)=NC(CC(=O)N[C@H](C)c1ccc(CN3CCN(Cc4ccc(-n5c(O)nnc5-c5cc(C(C)C)c(O)cc5O)cc4)CC3)cc1)c1nnc(C)n1-2 (stereo in doubt) [Compound 70, 2-((6S)-4-(4-chlorophenyl)-2,3,9-trimethyl-6H-thieno[3,2-f][1,2,4]triazolo[4,3-a][1,4]diazepin-6-yl)-N—((R)-1-(4-((4-(4-(3-(2,4-dihydroxy-5-isopropylphenyl)-5-hydroxy-4H-1,2,4-triazol-4-yl)benzyl)piperazin-1-yl)methyl)phenyl)ethyl)acetamide, trifluoroacetic acid] | < 100 nM
3 | Cc1sc2c(c1C)C(c1ccc(Cl)cc1)=NC(CC(=O)N1CCC(Cc3ccc(CN(C)Cc4ccc(-n5c(C(=O)NCC(F)(F)F)nnc5-c5cc(C(C)C)c(O)cc5O)cc4)cc3)CC1)c1nnc(C)n1-2 (stereo in doubt) [Compound 84, (S)-4-(4-(((4-((1-(2-(4-(4-chlorophenyl)-2,3,9-trimethyl-6H-thieno[3,2-f][1,2,4]triazolo[4,3-a][1,4]diazepin-6-yl)acetyl)piperidin-4-yl)methyl)benzyl)(methyl)amino)methyl)phenyl)-5-(2,4-dihydroxy-5-isopropylphenyl)-N-(2,2,2-trifluoroethyl)-4H-1,2,4-triazole-3-carboxamide, trifluoroacetic acid] | < 100 nM
4 | CCc1cc(-c2nnc(O)n2-c2ccc(CN3CCN(CC4CCN(CC[C@@H]5N=C(c6ccc(Cl)cc6)c6c(sc(C)c6C)-n6c(C)nnc65)CC4)CC3)cc2)c(O)cc1O [Compound 2, 4-(4-(4-((4-((1-(2-((6S)-4-(4-chlorophenyl)-2,3,9-trimethyl-6H-thieno[3,2-f][1,2,4]triazolo[4,3-a][1,4]diazepin-6-yl)ethyl)piperidin-4-yl)methyl)piperazin-1-yl)methyl)phenyl)-5-hydroxy-4H-1,2,4-triazol-3-yl)-6-ethylbenzene-1,3-diol, trifluoroacetic acid] | 100 to 1000 nM
5 | Cc1sc2c(c1C)C(c1ccc(Cl)cc1)=N[C@@H](CC(=O)N1CCC(Cc3ccc(-n4c(O)nnc4-c4cc(C(C)C)c(O)cc4O)cc3)CC1)c1nnc(C)n1-2 [Compound 3, 2-((6S)-4-(4-chlorophenyl)-2,3,9-trimethyl-6H-thieno[3,2-f][1,2,4]triazolo[4,3-a][1,4]diazepin-6-yl)-1-(4-(4-(3-(2,4-dihydroxy-5-isopropylphenyl)-5-hydroxy-4H-1,2,4-triazol-4-yl)benzyl)piperidin-1-yl)ethanone, trifluoroacetic acid] | < 100 nM
6 | Cc1sc2c(c1C)C(c1ccc(Cl)cc1)=N[C@@H](CC(=O)N1CCC(CN3CCN(Cc4ccc(-n5c(O)nnc5-c5ccc(O)cc5O)cc4)CC3)CC1)c1nnc(C)n1-2 [Compound 4, 2-((6S)-4-(4-chlorophenyl)-2,3,9-trimethyl-6H-thieno[3,2-f][1,2,4]triazolo[4,3-a][1,4]diazepin-6-yl)-1-(4-((4-(4-(3-(2,4-dihydroxyphenyl)-5-hydroxy-4H-1,2,4-triazol-4-yl)benzyl)piperazin-1-yl)methyl)piperidin-1-yl)ethanone, trifluoroacetic acid] | 100 to 1000 nM
7 | CCc1cc(-c2nnc(O)n2-c2ccc(CN3CCN(CC4CCN(C(=O)C[C@@H]5N=C(c6ccc(Cl)cc6)c6c(sc(C)c6C)-n6c(C)nnc65)CC4)CC3)cc2)c(O)cc1O [Compound 10, (S)-2-(4-(4-chlorophenyl)-2,3,9-trimethyl-6H-thieno[3,2-f][1,2,4]triazolo[4,3-a][1,4]diazepin-6-yl)-1-(4-((4-(4-(3-(5-ethyl-2,4-dihydroxyphenyl)-5-hydroxy-4H-1,2,4-triazol-4-yl)benzyl)piperazin-1-yl)methyl)piperidin-1-yl)ethan-1-one hydrochloride] | < 100 nM
